Columns and labels:
Assay type in all cases: functional
HeLa = assay: Antiproliferative activity against human HeLa cells assessed as reduction in net protein increase after 48 hrs by SRB assay
[1] = Antiproliferative activity against human MiaPaCa cells assessed as reduction in net protein increase after 48 hrs by SRB assay; details: MIA PaCa-2, 48 h
MDA-MB-231 = assay: Antiproliferative activity against human MDA-MB-231 cells assessed as reduction in net protein increase after 48 hrs by SRB assay; details: MDA-MB-231, 48 h
[2] = Antiproliferative activity against human IMR32 cells assessed as reduction in net protein increase after 48 hrs by SRB assay; details: IMR-32, 48 h

Row | GI50 (HeLa) [nM] | GI50 (MDA-MB-231) [nM] | Compound | GI50 [1] [nM] | GI50 [2] [nM]
1 | 10000 | 4800 | O=C1COc2ccccc2N1CCCn1cc(-c2ccccn2)nn1 | 5800 | 2000
2 | 4900 | 41500 | COc1ccc(-c2cn(CCCN3C(=O)COc4ccccc43)nn2)cc1 | 15700 | 49900
3 | > 100000 | 3000 | O=C1COc2ccccc2N1CCCn1cc(-c2cccnc2)nn1 | 8200 | 860
4 | 1020 | 3600 | CCCCc1cn(CCCN2C(=O)COc3ccccc32)nn1 | 2500 | 5700
5 | 73 | 85 | COc1cccc2c1C(=O)c1c(O)c3c(c(O)c1C2=O)C[C@@](O)(C(=O)CO)C[C@@H]3O[C@H]1C[C@H](N)[C@H](O)[C@H](C)O1 [DOXORUBICIN] | 97 | 23
6 | 100 | 6400 | O=C1COc2ccccc2N1CCCn1cc(CCCCl)nn1 | 12500 | 200
7 | 9000 | 4900 | O=C1COc2ccccc2N1CCCn1cc(-c2ccccc2)nn1 | 94000 | 370

More lines, now with the values behind:

Row | Compound | GI50 (HeLa) [nM] | GI50 (MDA-MB-231) [nM] | GI50 [1] [nM] | GI50 [2] [nM]
8 | O=C1COc2ccccc2N1CCCn1cc(CO)nn1 | 7300 | 5700 | 1010 | 5500
9 | O=C1COc2ccccc2N1CCCn1cc(-c2cc3ccccc3c3ccccc23)nn1 | > 100000 | > 100000 | 8400 | 130
10 | CC(=O)O[C@H]1C(=O)[C@@]2(C)[C@H]([C@H](OC(=O)c3ccccc3)[C@]3(O)C[C@H](OC(=O)[C@H](O)[C@@H](NC(=O)c4ccccc4)c4ccccc4)C(C)=C1C3(C)C)[C@]1(OC(C)=O)CO[C@@H]1C[C@@H]2O [PACLITAXEL] | 25 | 91 | 56 | 75
11 | CCCc1cn(CCCN2C(=O)COc3ccccc32)nn1 | 23200 | 1100 | 2600 | 1400
12 | O=C1COc2ccccc2N1CCCn1cc(C2(O)CCCCC2)nn1 | 2000 | 1200 | 2500 | 1200
13 | CCCCCc1ccc(-c2cn(CCCN3C(=O)COc4ccccc43)nn2)cc1 | > 100000 | 5000 | > 100000 | 43500
14 | Cc1ccc(-c2cn(CCCN3C(=O)COc4ccccc43)nn2)cc1 | 14300 | 1120 | > 100000 | 4400
15 | COc1ccc2cc(-c3cn(CCCN4C(=O)COc5ccccc54)nn3)ccc2c1 | > 100000 | 5000 | > 100000 | 1300
16 | CCCCCCc1cn(CCCN2C(=O)COc3ccccc32)nn1 | 100 | 1100 | 150 | 710

— ChEMBL document CHEMBL3351254, “Rational design, synthesis and anti-proliferative evaluation of novel 1,4-benzoxazine-[1,2,3]triazole hybrids” (2015)
